The numbers were not newly measured in US7041634B2, “Method of inhibiting immune system destruction of transplanted viable cells” (Emory University, priority 1995, dated 2006), which cites them from elsewhere.

In this data set the test system is encapsulated hamster islet xenografts in NOD mice. Particulars: NOD recipients.

`N=C(N)NCCCCCCC(=O)NC(O)C(=O)NCCCCNCCCN` (stereo not shown) [deoxyspergualin]: the “prolongation of encapsulated islet xenografts” value is recorded as “significant prolongation”.
